# Data: patent publication US20130164384A1, “METHODS OF TREATING BOWEL DISEASES BY ADMINISTERING A BOWEL CLEANSER AND AN ANTIBIOTIC” (Salix Pharmaceuticals, Ltd., priority 2008, published 2013)
# Test system: subjects with dIBS
# Experiment: Study of three rifaximin doses in subjects with dIBS: adequate relief of IBS symptoms and bloating
# Format: in vivo, human
# Conditions: for Adequate Relief of Bloating: Success / Adequate Relief of IBS Symptoms: Failure / Adequate Relief of IBS Symptoms: Success / Adequate Relief of Bloating: Failure: end of treatment phase
# Experimental: This example relates to a study of three rifaximin doses in subjects with dIBS. Subjects were randomized to receive daily BID doses of rifaximin 275 mg, 550 mg, or 1100 mg for 14 days. A fifth group of subjects received rifaximin 550 mg BID for a period of 28 days. Subjects were questioned on the relief of overall IBS symptoms and bloating. […] The analyses defined success as a “yes” response to questions regarding adequate relief of SGA or IBS-B in at least 2 out of the final 3 weeks of the double-blind treatment period.
# Baseline severity was determined using 7-point Lickert scales during screening for Abdominal Pain/Discomfort and Bloating, and the number, type (normal, hard, loose) and urgency of bowel movements.
# Duration of effect was assessed in a 12 week follow-up period. Subjects that responded in the 4 week double-blind treatment period were followed for an additional 3 months. Fifty-three (53) subjects from the 550 mg 2 w and 59 subjects from the placebo-treated groups participated in this study phase.
# Subjects recorded the following information on dIBS symptoms daily throughout the duration of the study: • Number of normal stools/day; • Number of hard and lumpy stools/day; • Number of loose or watery stools/day; • Number of loose or watery stools/day with the symptom of urgency; • How bothersome is abdominal pain and discomfort? [7-point response scale: 0 (not at all) to 6 (a very great deal)]; • How bothersome is bloating? [(7-point response scale: 0 (not at all) to 6 (a very great deal)].
# Weekly summary variables were computed by averaging the recorded values over all pre-treatment days or over the seven days preceding the time point of interest for post-treatment assessments. For example, baseline included Days −10 to 0, Week 1 included Days 1 to 7, Week 2 included Days 8 to 14, and so forth through Week 16. Changes from baseline variables were computed for each weekly summary score.
# [1] = RFX 550 2 w (550 mg BID 14 days), had screening colonoscopy, Average Bloating Discomfort Score at Baseline >4
# [2] = RFX 550 4 w (550 mg BID 28 days), Had a Screening Colonoscopy: No
# [3] = RFX 550 4 w (550 mg BID 28 days), Had a Screening Colonoscopy: Yes
# [4] = RFX 550 4 w (550 mg BID 28 days), Screening Colonoscopy <=26 Days
# [5] = RFX 550 4 w (550 mg BID 28 days), Screening Colonoscopy >26 Days
# [6] = RFX 550 4 w (550 mg BID 28 days), had screening colonoscopy, Average Abdominal Pain Discomfort Score at Baseline <=4
# [7] = RFX 550 4 w (550 mg BID 28 days), had screening colonoscopy, Average Abdominal Pain Discomfort Score at Baseline >4
# [8] = RFX 550 4 w (550 mg BID 28 days), had screening colonoscopy, Average Bloating Discomfort Score at Baseline <=4
# [9] = RFX 550 4 w (550 mg BID 28 days), had screening colonoscopy, Average Bloating Discomfort Score at Baseline >4
# [10] = RFX 1100 2 w (1100 mg BID 14 days), Had a Screening Colonoscopy: No
# [11] = RFX 1100 2 w (1100 mg BID 14 days), Had a Screening Colonoscopy: Yes
# [12] = RFX 1100 2 w (1100 mg BID 14 days), Screening Colonoscopy <=26 Days
# [13] = RFX 1100 2 w (1100 mg BID 14 days), Screening Colonoscopy >26 Days
# [14] = RFX 1100 2 w (1100 mg BID 14 days), had screening colonoscopy, Average Abdominal Pain Discomfort Score at Baseline <=4
# [15] = RFX 1100 2 w (1100 mg BID 14 days), had screening colonoscopy, Average Abdominal Pain Discomfort Score at Baseline >4
# [16] = RFX 1100 2 w (1100 mg BID 14 days), had screening colonoscopy, Average Bloating Discomfort Score at Baseline <=4
# [17] = RFX 1100 2 w (1100 mg BID 14 days), had screening colonoscopy, Average Bloating Discomfort Score at Baseline >4
smiles,measurement,setting,value
"COC1/C=C/OC2(C)Oc3c(C)c(O)c4c(O)c(c5c(nc6cc(C)ccn65)c4c3C2=O)NC(=O)/C(C)=C\C=C\C(C)C(O)C(C)C(O)C(C)C(OC(C)=O)C1C [RFX, (2S,16Z,18E,20S,21S,22R,23R,24R,25S,26S,27S,28E)-5,6,21,23,25 Pentahydroxy-27-methoxy-2,4,11,16,20,22,24,26-octamethyl-2,7-(epoxypentadeca-(1,11,13)trienimino)benzofuro(4,5-e)pyrido(1,2,-a)benzimidazole-1,15(2H)-dione,25-acetate]",Adequate Relief of Bloating: Success,[1],8 (50.0%) n (%)
same,Adequate Relief of IBS Symptoms: Failure,[1],8 (50.0%) n (%)
same,Adequate Relief of IBS Symptoms: Success,[1],8 (50.0%) n (%)
same,Adequate Relief of Bloating: Failure,[2],37 (64.9%) n (%)
same,Adequate Relief of Bloating: Success,[2],20 (35.1%) n (%)
same,Adequate Relief of IBS Symptoms: Failure,[2],35 (61.4%) n (%)
same,Adequate Relief of IBS Symptoms: Success,[2],22 (38.6%) n (%)
same,Adequate Relief of Bloating: Failure,[3],23 (56.1%) n (%)
same,Adequate Relief of Bloating: Success,[3],18 (43.9%) n (%)
same,Adequate Relief of IBS Symptoms: Failure,[3],22 (53.7%) n (%)
same,Adequate Relief of IBS Symptoms: Success,[3],19 (46.3%) n (%)
same,Adequate Relief of Bloating: Failure,[4],12 (48.0%) n (%)
same,Adequate Relief of Bloating: Success,[4],13 (52.0%) n (%)
same,Adequate Relief of IBS Symptoms: Failure,[4],11 (44.0%) n (%)
same,Adequate Relief of IBS Symptoms: Success,[4],14 (56.0%) n (%)
same,Adequate Relief of Bloating: Failure,[5],11 (68.8%) n (%)
same,Adequate Relief of Bloating: Success,[5],5 (31.3%) n (%)
same,Adequate Relief of IBS Symptoms: Failure,[5],11 (68.8%) n (%)
same,Adequate Relief of IBS Symptoms: Success,[5],5 (31.3%) n (%)
same,Adequate Relief of Bloating: Failure,[6],19 (59.4%) n (%)
same,Adequate Relief of Bloating: Success,[6],13 (40.6%) n (%)
same,Adequate Relief of IBS Symptoms: Failure,[6],19 (59.4%) n (%)
same,Adequate Relief of IBS Symptoms: Success,[6],13 (40.6%) n (%)
same,Adequate Relief of Bloating: Failure,[7],4 (44.4%) n (%)
same,Adequate Relief of Bloating: Success,[7],5 (55.6%) n (%)
same,Adequate Relief of IBS Symptoms: Failure,[7],3 (33.3%) n (%)
same,Adequate Relief of IBS Symptoms: Success,[7],6 (66.7%) n (%)
same,Adequate Relief of Bloating: Failure,[8],15 (57.7%) n (%)
same,Adequate Relief of Bloating: Success,[8],11 (42.3%) n (%)
same,Adequate Relief of IBS Symptoms: Failure,[8],15 (57.7%) n (%)
same,Adequate Relief of IBS Symptoms: Success,[8],11 (42.3%) n (%)
same,Adequate Relief of Bloating: Failure,[9],8 (53.3%) n (%)
same,Adequate Relief of Bloating: Success,[9],7 (46.7%) n (%)
same,Adequate Relief of IBS Symptoms: Failure,[9],7 (46.7%) n (%)
same,Adequate Relief of IBS Symptoms: Success,[9],8 (53.3%) n (%)
same,Adequate Relief of Bloating: Failure,[10],30 (66.7%) n (%)
same,Adequate Relief of Bloating: Success,[10],15 (33.3%) n (%)
same,Adequate Relief of IBS Symptoms: Failure,[10],27 (60.0%) n (%)
same,Adequate Relief of IBS Symptoms: Success,[10],18 (40.0%) n (%)
same,Adequate Relief of Bloating: Failure,[11],31 (57.4%) n (%)
same,Adequate Relief of Bloating: Success,[11],23 (42.6%) n (%)
same,Adequate Relief of IBS Symptoms: Failure,[11],31 (57.4%) n (%)
same,Adequate Relief of IBS Symptoms: Success,[11],23 (42.6%) n (%)
same,Adequate Relief of Bloating: Failure,[12],20 (55.6%) n (%)
same,Adequate Relief of Bloating: Success,[12],16 (44.4%) n (%)
same,Adequate Relief of IBS Symptoms: Failure,[12],19 (52.8%) n (%)
same,Adequate Relief of IBS Symptoms: Success,[12],17 (47.2%) n (%)
same,Adequate Relief of Bloating: Failure,[13],11 (61.1%) n (%)
same,Adequate Relief of Bloating: Success,[13],7 (38.9%) n (%)
same,Adequate Relief of IBS Symptoms: Failure,[13],12 (66.7%) n (%)
same,Adequate Relief of IBS Symptoms: Success,[13],6 (33.3%) n (%)
same,Adequate Relief of Bloating: Failure,[14],22 (50.0%) n (%)
same,Adequate Relief of Bloating: Success,[14],22 (50.0%) n (%)
same,Adequate Relief of IBS Symptoms: Failure,[14],23 (52.3%) n (%)
same,Adequate Relief of IBS Symptoms: Success,[14],21 (47.7%) n (%)
same,Adequate Relief of Bloating: Failure,[15],9 (90.0%) n (%)
same,Adequate Relief of Bloating: Success,[15],1 (10.0%) n (%)
same,Adequate Relief of IBS Symptoms: Failure,[15],8 (80.0%) n (%)
same,Adequate Relief of IBS Symptoms: Success,[15],2 (20.0%) n (%)
same,Adequate Relief of Bloating: Failure,[16],21 (47.7%) n (%)
same,Adequate Relief of Bloating: Success,[16],23 (52.3%) n (%)
same,Adequate Relief of IBS Symptoms: Failure,[16],21 (47.7%) n (%)
same,Adequate Relief of IBS Symptoms: Success,[16],23 (52.3%) n (%)
same,Adequate Relief of Bloating: Failure,[17],10 (100.0%) n (%)
same,Adequate Relief of Bloating: Success,[17],0 n (%)
same,Adequate Relief of IBS Symptoms: Failure,[17],10 (100.0%) n (%)
same,Adequate Relief of IBS Symptoms: Success,[17],0 n (%)
same,Likelihood of treatment effect with a purgative prior to rifaximin versus no cleanser,purgative prior to treatment,much more likely to have a treatment effect
same,Rate of success in relief of symptoms with screening colonoscopy (GI cleanser) prior to rifaximin,subjects who had a screening colonoscopy,higher rate of success in relief of symptoms
